The values that follow come from patent US20240285638A1, “METHODS FOR TREATING FACIOSCAPULOHUMERAL MUSCULAR DYSTROPHY (FSHD)” (RESEARCH INSTITUTE AT NATIONWIDE CHILDREN'S HOSPITAL, priority 2021, published 2024).

Assay [1] relates to DUX4. The experiment in a line: DUX4-activated biomarkers and target genes in biopsied muscle of FSHD patients after IM or IV injection. The format is in vivo, human. How it is done:
SAA and AdOx, or derivatives thereof, as described herein, are injected into patients suffering from FSHD intramuscularly (IM) or intravenously (IV). Prior to treatment and after 4, 8, 12, 16, 20, 24, 28, 32, 36 40, 44, 48, and 52 weeks, DUX4-activated biomarkers and/or DUX4 target genes in muscle of the patients are measured in biopsied muscle as described herein.

Assay [2] has as its system human myoblasts expressing DUX4. The experiment in a line: Caspase-3/7 activation assay in human myoblasts transfected with DUX4, with or without inhibitor. The note with it: inhibitor added 1.5 hours later, increasing concentrations, caspase assay 48 hours later, FIGS. 6A-B. It counts as cell-based. Here is the method:
HEK293 cells were transfected with 100 ng plasmid DNA (65,000 cells/well) using Lipofectamine 2000 and assays were performed 48 hours later using the Apo-ONE Homogeneous Caspase-3/7 Assay (Promega). The protocol was followed according to the manufacturer's instructions. Briefly, 100 μl of the reagent was added to each well and the 96-well plate was gently rotated for 20 min. Relative fluorescence was monitored every hour for 4-6 hours. Inhibitor studies were performed in human myoblasts which were transfected with 100 ng of DUX4 DNA (65,000 cells/well) with Lipofectamine 2000. The inhibitors adenosine dialdehyde or salvianolic acid A were added 1.5 hours later and a caspase assay was performed 48 hours later as above. The observation that a DUX4 arginine methylation null mutant protects from cell death and DUX4 interacts with an arginine methyltransferase indicate a role for arginine methylation inhibitors as protective in FSHD disease models. Thus, the global methylation inhibitor, adenosine dialdehyde (AdOx)^17, and the PRMT1 inhibitor, salvianolic acid A (SAA)^18 were tested for their ability to protect against DUX4-mediated cell death. The caspase assay was performed in human myoblasts expressing DUX4 in the presence or absence of AdOx or SAA.

Assay [3] concerns DUX4. The experiment in a line: DUX4 biomarker and target gene expression in muscle of FSHD mouse model (TIC-DUX4) after IM or IV injection. The format is in vivo. Here is the method: SAA and AdOx, or derivatives thereof, as described herein, are each injected into a FSHD mouse model (TIC-DUX4) or any other mouse model of FSHD mice intramuscularly (IM) or intravenously (IV). After 4, 8, 12, 16, 20, and 24 weeks, the ? DUX4, a DUX4 biomarker, such as Wfdc3 or Trim36, and DUX4 target gene expression are measured by qRT-PCR, RNAscope, or ddPCR.

With `O=C(/C=C/c1ccc(O)c(O)c1/C=C/c1ccc(O)c(O)c1)O[C@H](Cc1ccc(O)c(O)c1)C(=O)O` [SAA, salvianolic acid A], the FSHD disease symptoms entry in the assay with DUX4 [1] is given as “Improvement in FSHD disease symptoms”. Also, in the assay on DUX4 [1] (4-52 weeks, vs same patients prior to treatment), the “expression levels of DUX4-activated biomarkers and/or DUX4 target genes in muscle” value is given as “Reduced expression levels of DUX4-activated biomarkers and/or DUX4 target genes”. Further, the “caspase cleavage (DUX4-mediated cell death)” value in assay [2] was “decreased caspase cleavage in a dose-responsive manner”. Further, the “DUX4 biomarker expression in muscle (Wfdc3 or Trim36)” value in the assay with DUX4 [3] (IM or IV, 4-24 weeks, vs untreated mice) is recorded as “Reduced levels of DUX4 biomarker expression”. Moreover, the “expression of DUX4 target genes PRAMEF12, ZSCAN4, TRIM43, LEUTX” value in the assay with DUX4 [3] (IM or IV, vs untreated mice) was “decreased expression of DUX4 target genes”. Moreover, in the assay on DUX4 [3] (treated mice), the “muscle strength, morphology, ambulation and motor function” value was “improved muscle strength, morphology, and overall ambulation and motor function”.
